Laboratory results from ChEMBL document CHEMBL6127040, “Discovery and optimization of isoliquiritigenin as a death-associated protein kinase 1 inhibitor” (Eur J Med Chem, 2024).

Experiments:
[1] = molecular target: Death-associated protein kinase 1 (Homo sapiens) (UniProt P53355)
Description: Binding affinity to DAPK1 (unknown origin) assessed as change in entropy by ITC analysis

[2] = molecular target: Death-associated protein kinase 1 (Homo sapiens) (UniProt P53355); remark: listed apart in the source
Description: Binding affinity to DAPK1 (unknown origin) assessed as change in Gibbs free energy by ITC analysis

[3] = molecular target: Death-associated protein kinase 1 (Homo sapiens) (UniProt P53355); remark: listed apart in the source
Description: Binding affinity to DAPK1 (unknown origin) assessed as change in enthalpy by ITC analysis

Death-associated protein kinase 1 (Homo sapiens), sequence (P53355 whole entry, looked up): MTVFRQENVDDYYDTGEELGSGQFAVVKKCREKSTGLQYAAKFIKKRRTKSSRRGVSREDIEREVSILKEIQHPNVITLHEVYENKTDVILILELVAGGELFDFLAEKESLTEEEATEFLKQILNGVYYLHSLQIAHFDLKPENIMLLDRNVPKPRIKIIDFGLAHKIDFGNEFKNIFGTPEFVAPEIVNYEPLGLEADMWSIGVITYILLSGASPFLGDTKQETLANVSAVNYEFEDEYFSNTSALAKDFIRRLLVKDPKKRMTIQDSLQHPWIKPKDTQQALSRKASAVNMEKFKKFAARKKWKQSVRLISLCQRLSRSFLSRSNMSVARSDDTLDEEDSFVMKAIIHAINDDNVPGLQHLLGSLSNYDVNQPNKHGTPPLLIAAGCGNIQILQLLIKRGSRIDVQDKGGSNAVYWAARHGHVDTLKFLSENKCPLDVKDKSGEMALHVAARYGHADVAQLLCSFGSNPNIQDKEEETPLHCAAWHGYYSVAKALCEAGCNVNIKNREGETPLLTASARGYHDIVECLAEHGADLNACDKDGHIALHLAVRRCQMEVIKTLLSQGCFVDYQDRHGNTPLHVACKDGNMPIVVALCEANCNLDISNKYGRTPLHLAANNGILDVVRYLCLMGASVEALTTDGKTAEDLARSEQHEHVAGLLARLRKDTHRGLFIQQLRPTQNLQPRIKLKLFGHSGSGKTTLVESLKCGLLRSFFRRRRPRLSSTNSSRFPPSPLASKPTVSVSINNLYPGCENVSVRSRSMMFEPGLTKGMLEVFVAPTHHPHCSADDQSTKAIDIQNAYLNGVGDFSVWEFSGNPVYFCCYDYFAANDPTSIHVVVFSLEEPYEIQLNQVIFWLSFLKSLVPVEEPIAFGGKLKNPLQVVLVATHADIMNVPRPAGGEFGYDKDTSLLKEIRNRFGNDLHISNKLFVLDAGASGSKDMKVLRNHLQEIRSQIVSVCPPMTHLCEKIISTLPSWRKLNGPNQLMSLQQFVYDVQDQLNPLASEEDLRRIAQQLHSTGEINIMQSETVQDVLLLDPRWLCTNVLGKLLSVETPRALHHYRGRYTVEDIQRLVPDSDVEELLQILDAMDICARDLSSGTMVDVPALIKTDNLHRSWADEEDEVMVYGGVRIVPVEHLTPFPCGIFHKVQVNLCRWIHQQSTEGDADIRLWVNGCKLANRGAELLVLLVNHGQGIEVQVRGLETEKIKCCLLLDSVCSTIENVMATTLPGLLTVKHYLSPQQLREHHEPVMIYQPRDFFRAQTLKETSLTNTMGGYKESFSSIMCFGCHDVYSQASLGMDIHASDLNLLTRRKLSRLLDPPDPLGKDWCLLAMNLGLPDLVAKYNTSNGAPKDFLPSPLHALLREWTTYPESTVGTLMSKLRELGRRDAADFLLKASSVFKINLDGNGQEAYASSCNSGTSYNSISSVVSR

O=C(/C=C/c1ccc(O)cc1)c1ccc(O)cc1O
-TdeltaS [1]: 1.9 kcal/mol
deltaG [2]: -7.66 kcal/mol
deltaH [3]: -9.55 kcal/mol
